Broadly, the Ki is a measure of affinity in units of concentration, obtained from inhibition or displacement. Low readings indicate a stronger hold on the target, high ones a looser hold on the target.

The source of these data is BindingDB's records for doi:10.7270/Q2QR4VJR (Nmmlsc, 2010).

The test concerns the target T1, Regulator of G-protein signaling 16 (Homo sapiens, UniProt O15492).
T1 sequence (O15492 whole entry): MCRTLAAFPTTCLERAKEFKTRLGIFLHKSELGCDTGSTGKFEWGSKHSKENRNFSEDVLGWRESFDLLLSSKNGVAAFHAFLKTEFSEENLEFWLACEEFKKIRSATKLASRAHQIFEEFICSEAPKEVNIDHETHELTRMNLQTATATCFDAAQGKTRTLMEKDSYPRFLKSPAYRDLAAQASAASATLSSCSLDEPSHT
The test can be described thus: small molecules altering RGS16 interaction with Galphao – biochemical, multiplexed bead flow cytometry, SAR compounds, SAR follow-up (AID 2298). For orientation: Flow cytometry measures light scatter and fluorescence of single cells or particles in a stream.

The structures appear in SMILES notation.

In turn, `O=C1C(Cl)=C(N2CCCCC2)C(=O)C(Cl)=C1c1cnc(N2CCCCC2)s1` [MLS000550549] had a Ki of 100 nM.

The compound `NS(=O)(=O)c1ccc(N=NCc2ccc(O)c(O)c2O)c([N+](=O)[O-])c1` [4-[[(E)-(2,3-dihydroxy-4-oxo-1-cyclohexa-2,5-dienylidene)methyl]hydrazo]-3-nitrobenzenesulfonamide] displayed a Ki of 20 nM.
